Source: patent US6830883B1, “Method for typing of minor histocompatibility antigen HA-1” (Rijksuniversiteit Leiden, priority 1997, dated 2004)
Where no end group is shown, it is not given here.

How the values were obtained:
[1] = system: recombinant HLA-A2.1 and β2-microglobulin; test: HLA-A2.1 peptide binding assay (inhibition of binding of fluorescent standard peptide […], cell free); set-up: species or system human; conditions: for IC50: cell free, determined on the results of 4 experiments, read-out: IC50 (concentration that inhibited the binding of a fluorescent standard peptide to HLA-A2.1 by 50%); for binder category for HLA-A2.1: classified from the IC50
Experimental: a. Binding of HA-1^H and HA-1^R peptides to HLA-A2.1. The binding of HA-1^H and HA-1^R peptides were assayed for their ability to inhibit the binding of fluorescent peptide […] to recombinant HLA-A2.1 and β2-microglobulin in a cell free peptide binding assay. One representative experiment is shown.
A quantitative assay for HLA-A2.1 binding peptides based on the inhibition of binding of the flourescent labeled standard peptide Hbc 18-27 F to C6 ([…]) to recombinant HLA-A2.1 protein and β2-microglobulin was used ^26,27. In short, HLA-A2.1 concentrations yielding approximately 40-60% bound fluorescent standard peptide were used with 15 pmol/well (150 nM) β2-microglobulin (Sigma). Various doses of the test peptides were coincubated with 100 fmol/well (1 nM) fluorescent standard peptide. HLA-A2.1 and β2-microglobulin for 1 days at room temperature in the dark in a volume of 100 μl in assay buffer. The percent of MHC-bound fluoescence was determined by gel filtration and the 50% inhibitory dose was deduced for each peptide using one-site competition non-linear regression analysis with the prismgraph software. Synthetic peptides were manufactured on a Abimed 422 multiple peptide synthesizer (Abimed, Langenfeld, Germany) and were more than 90% pure as checked by reverse phase HPLC.

[2] = system: HA-1 specific T cell clones 3HA15, clone 15 and 5W38 (T2 target cells); test: 51Cr-release reconstitution assay: synthetic peptide on T2 cells with HA-1 specific CTL clones; assay type: cell-based, human; conditions: for recognition by HA-1 specific CTL clones / reconstitution of the HA-1 epitope: synthetic peptide titrated on T2 cells, 51Cr-release
Experimental: b. Reconstitution assay with different concentrations of synthetic mH HA-1 peptide with three HA-1 specific T cell clones, 3HA15, clone 15 and 5W38. Background lysis of T2 by the CTL in the absence of any peptide was for 3HA15 4%, for clone 15 10% and for 5W38 2%. Positive control lysis was for 3HA15 46%, for clone 15 47% and 5W38 48 48%.
b. Reconstitution assay with different concentrations of synthetic […] peptide with HA-1 specific T cells. The HA-1^R peptide was titrated and preincubated with T2 cells. Three HA-1 specific T cells clones, 5W38, 3HA15 and clone 15 were added and a 4 hr ^51Cr-release assay was performed. Background lysis of T2 by the CTL in the absence of any peptide was for 3HA15 4%, for clone 15 10% and for 5W38 2%. Positive control lysis was for 3HA15 46%, for clone 15 47% and 5W38 48%.
HPLC fractions and synthetic peptides were tested in a ^51Cr-release assay as described^24. 2500 ^51Cr labeled T2 cells in 25 μl were incubated with 25 μl peptide dissolved in Hanks 50 mM Hepes for 30 minutes at 37° C. Cytotoxic T cells were added in an endvolume of 150 μl. When HPLC peptide fractions were tested, T2 was incubated with 2 μg/ml MA2.1 during the ^51Cr labelling. After 4 hours at 37° C. the supernatants were harvested.

Sequence	binding affinity for HLA-A2.1, fold lower than the HA-1^H peptide ([1]; HA-1^R versus HA-1^H peptide) [fold]	IC50 [1] [µM]	binder category for HLA-A2.1 [1]	peptide concentration needed for recognition, times higher than for the HA-1^H peptide ([2]; clone 3HA15) [times]	recognition by HA-1 specific CTL clones / reconstitution of the HA-1 epitope [2]	EC50 ([2]; 3 different HA-1 specific CTL clones, T2 target cells, 4 hr, read-out: half maximal activity in CML (51Cr-release) assay) [µM]
VLRDDLLEA	10	0.365	intermediate binders	1000	One out of three clones (3HA15) tested showed recognition	–
VLHDDLLEA	–	0.03	high affinity binders	–	recognition by all three clones	0.00015 to 0.0002
YXTDRVMTV [synthetic peptide of candidate m/z 550; X stands for isoleucine or leucine]	–	–	–	–	not able to reconstitute the HA-1 epitope	–
